In patent US11026942B2, “Agent for preventing and/or treating Alzheimer's disease” (KYOTO UNIVERSITY, priority 2015, dated 2021):

Key:
Assay type in all cases: cell-based, human
Aβ42 = Aβ42 in FAD1 iPS cell-derived nerve cells (primary/secondary screening, dose dependency); conditions: secondary screening, FAD1 iPS cell-derived nerve cells, numerical value (Aβ change rate)
Excerpt: (§1) To perform induction from iPS cells to the cerebral cortex nerve early and with high reproducibility, iPS cells introduced with human Neurogenin 2 gene (NGN2) linked to doxycycline-inducible promoter by using PiggyBac were used (FIG. 1a, FIG. 1b, FIG. 4a and FIG. 4b). IPS cells prepared from 4 patients with familial Alzheimer's disease (FAD), 2 patients with sporadic Alzheimer's disease (SAD) and 4 healthy individuals (HC) were used. The iPS cells were established by the method described in Okita K et al., Nature.
(§2) Structural formulas (those in the form of salt or halide are also described as free form) and the general names of the candidate compounds are shown in Table 1.
(§3) To further study reproducibility of the candidate drugs obtained by the primary screening, secondary screening was conducted. In addition to Aβ40, Aβ42, Aβ42/40 ratio, Aβ38, Aβ43, sAPPα, sAPPβ were also studied and each numerical value was obtained.

Aβ43 = Aβ43 in FAD1 iPS cell-derived nerve cells (secondary screening); design: scale not given here
Experimental: as §3

Aβ38 = Aβ38 in FAD1 iPS cell-derived nerve cells (secondary screening); design: scale not given here
Experimental: as §3

Aβ42/40 ratio = Aβ42/40 ratio in FAD1 iPS cell-derived nerve cells (primary/secondary screening, dose dependency); conditions: secondary screening
Excerpt: as §1, §2, §3

sAPPα = sAPPα in FAD1 iPS cell-derived nerve cells (secondary screening); design: scale not given here; conditions: secondary screening, FAD1 iPS cell-derived nerve cells
Experimental: as §3

sAPPβ = sAPPβ in FAD1 iPS cell-derived nerve cells (secondary screening); design: sAPPβ: scale not given here; conditions: secondary screening, FAD1 iPS cell-derived nerve cells
Experimental: as §3

| Compound | Aβ42 (Aβ42) | Aβ43 (Aβ43) | Aβ38 (Aβ38) | Ratio Aβ42/40 (Aβ42/40 ratio) | sAPPα (sAPPα) | sAPPβ (sAPPβ) |
| --- | --- | --- | --- | --- | --- | --- |
| O=C1CCc2cc(OCCCCc3nnnn3C3CCCCC3)ccc2N1 [compound 107, CILOSTAZOL] | 0.85 | 0.82 | 1.01 | 0.86 | 0.78 | 0.68 |
| Oc1ccc(Cl)cc1Cc1cc(Cl)ccc1O [compound 94, DICHLOROPHENE] | 0.79 | 0.87 | 0.94 | 0.89 | 0.78 | 0.85 |
| N[C@@H]1CONC1=O [compound 114, CYCLOSERINE] | 0.92 | 0.85 | 1.06 | 0.95 | 0.84 | 0.82 |
| COc1ccccc1OCC(O)CN1CCN(CC(=O)Nc2c(C)cccc2C)CC1 (stereo not drawn) [compound 3, RANOLAZINE] | 0.85 | 0.82 | 1 | 0.89 | 0.64 | 0.61 |
| CCN(CCCc1ccccc1)CCCc1ccccc1 [compound 7, ALVERINE] | 0.86 | 0.79 | 0.94 | 0.93 | 0.78 | 0.63 |
| CN1C(=O)CC[C@H]1c1cccnc1 [compound 10, COTININE] | 0.87 | 0.87 | 1.08 | 0.94 | 0.81 | 0.81 |
| O=C(O)c1cc(=O)c2c(OCC(O)COc3cccc4oc(C(=O)O)cc(=O)c34)cccc2o1 [compound 11, CROMOLYN] | 0.88 | 0.82 | 1.04 | 0.96 | 0.89 | 0.86 |
| CCN(CC)CCNC(=O)c1cc(Br)c(N)cc1OC [compound 86, BROMOPRIDE] | 0.84 | 0.9 | 1.07 | 0.84 | 1 | 0.85 |
| CC1(C)O[C@@H]2[C@@H](CO[C@@]3(COS(N)(=O)=O)OC(C)(C)O[C@@H]23)O1 [compound 100, TOPIRAMATE] | 0.79 | 1.02 | 0.9 | 0.92 | 0.81 | 0.78 |
| CNCC[C@@H](Oc1ccccc1C)c1ccccc1 [compound 4, ATOMOXETINE] | 0.95 | 0.89 | 1.1 | 0.94 | 0.78 | 0.81 |
| NCC(=O)CCC(=O)O [compound 47, AMINOLEVULINIC ACID] | 1.06 | 1.16 | 1.29 | 0.97 | 1.15 | 1.4 |
| NC(=O)NC1NC(=O)NC1=O (stereo not drawn) [compound 116, ALLANTOIN] | 0.88 | 1.13 | 1.07 | 0.96 | 1.05 | 0.93 |
| COc1ccc(C(=O)c2ccccc2O)c(O)c1 [compound 54, DIOXYBENZONE] | 0.93 | 0.83 | 1.16 | 1.02 | 0.72 | 0.75 |
| CCCCOC(=O)c1ccc(N)cc1 [compound 58, BUTAMBEN] | 0.95 | 0.95 | 1.08 | 1.03 | 0.79 | 0.76 |
| O=C(CCNNC(=O)c1ccncc1)NCc1ccccc1 [compound 34, NIALAMIDE] | 0.92 | 0.97 | 1.16 | 0.87 | 0.92 | 1.13 |
| CCCCOc1ccc(C(=O)CCN2CCCCC2)cc1 [compound 55, DYCLONINE] | 0.94 | 0.9 | 1.07 | 0.99 | 0.83 | 0.76 |
| CC(N=C(NC#N)Nc1ccncc1)C(C)(C)C (stereo not drawn) [compound 74] | 0.72 | 0.79 | 0.92 | 0.84 | 0.83 | 0.96 |

| Compound | Aβ42 (Aβ42) | Aβ43 (Aβ43) | Aβ38 (Aβ38) | Ratio Aβ42/40 (Aβ42/40 ratio) | sAPPα (sAPPα) | sAPPβ (sAPPβ) |
| --- | --- | --- | --- | --- | --- | --- |
| C[C@@H]1O[C@@H](OC[C@H]2O[C@@H](Oc3c(-c4ccc(OCCO)c(OCCO)c4)oc4cc(OCCO)cc(O)c4c3=O)[C@H](O)[C@@H](O)[C@@H]2O)[C@H](O)[C@H](O)[C@H]1O [compound 110, TROXERUTIN] | 0.88 | 0.95 | 0.97 | 0.93 | 0.74 | 0.51 |
| C=CC1=C(C(=O)O)N2C(=O)[C@@H](NC(=O)/C(=N\O)c3csc(N)n3)[C@H]2SC1 [compound 63] | 0.79 | 0.9 | 0.95 | 0.87 | 0.82 | 1.01 |
| Nc1nc(/C(=C/CC(=O)O)C(=O)N[C@@H]2C(=O)N3C(C(=O)O)=CCS[C@H]23)cs1 [compound 62, CEFTIBUTEN] | 0.79 | 0.83 | 1.01 | 0.87 | 0.76 | 0.55 |
| Cc1cccc(C)c1NC(=O)C1CCCCN1C (stereo not drawn) [compound 2, MEPIVACAINE] | 0.9 | 0.83 | 1.01 | 0.93 | 0.77 | 0.88 |
| C=C[C@H]1CN2CC[C@H]1C[C@H]2[C@H](OC(=O)OCC)c1ccnc2ccc(OC)cc12 [compound 41, QUININE ETHYL CARBONATE] | 0.85 | 0.88 | 1.05 | 0.77 | 0.84 | 0.72 |
| CNC(=C[N+](=O)[O-])NCCSCc1csc(CN(C)C)n1 [compound 78, NIZATIDINE] | 1.04 | 1.15 | 1.3 | 0.98 | 0.97 | 1.29 |
| C[C@H](CCC(=O)O)[C@H]1CC[C@H]2[C@@H]3C(=O)C[C@@H]4CC(=O)CC[C@]4(C)[C@H]3CC(=O)[C@]12C [compound 103, DEHYDROCHOLIC ACID] | 0.95 | 1.01 | 1.09 | 0.99 | 0.75 | 0.78 |
| CCN(CC)C(C)CN1c2ccccc2Sc2ccccc21 (stereo not drawn) [compound 15, ETHOPROPAZINE] | 0.84 | 0.84 | 1.03 | 0.88 | 0.72 | 0.71 |
| CCC[C@H](N[C@@H](C)C(=O)N1[C@H](C(=O)O)C[C@@H]2CCCC[C@@H]21)C(=O)OCC [compound 64, PERINDOPRIL ERBUMINE] | 0.81 | 0.91 | 1.01 | 0.85 | 0.7 | 0.53 |
| Cc1cc(CC(=O)O)n(C)c1C(=O)c1ccc(Cl)cc1 [compound 65, ZOMEPIRAC] | 0.79 | 0.83 | 0.92 | 0.85 | 0.73 | 0.76 |
| CN(C/C=C/C#CC(C)(C)C)Cc1cccc2ccccc12 [compound 5, TERBINAFINE] | 0.94 | 0.94 | 1.06 | 0.96 | 0.98 | 1.06 |
| CCc1cccc2c3c([nH]c12)C(CC)(CC(=O)O)OCC3 (stereo not drawn) [compound 26, ETODOLAC] | 0.99 | 1.55 | 1.11 | 1.13 | 0.99 | 0.98 |
| CN(C)CCc1c[nH]c2ccc(Cn3cncn3)cc12 [compound 80, RIZATRIPTAN] | 0.96 | 1.07 | 1.2 | 0.85 | 0.96 | 1.08 |
| CC1(C)C2CC[C@@]1(C)C(=O)C2 [compound 101, CAMPHOR (1R)] | 0.95 | 0.91 | 1.08 | 1.01 | 0.92 | 0.87 |
| Nc1ccc(C(=O)O)c(O)c1 [compound 50, AMINOSALICYLATE] | 1.03 | 1.22 | 1.2 | 1.08 | 1 | 1.31 |
| CN(C)CCN(Cc1ccc(Cl)cc1)c1ccccn1 [compound 129, CHLOROPYRAMINE] | 0.83 | 0.89 | 0.96 | 0.81 | 0.87 | 0.86 |
| O=S(=O)(O)c1cc(I)c(O)c2ncccc12 [compound 35, CHINIOFON] | 0.83 | 0.79 | 1.05 | 0.86 | 0.71 | 0.6 |
